Experimental data reported in patent US6737383B1, “Herbicidal oxadiazolidines” (priority 1999, dated 2004).

Legend:
giant foxtail = assay: Test B pre/postemergence giant foxtail; format: in vivo, Setaria faberii
Outline: (§1)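 Herbicidal effect was estimated by eye on a ten-point control scale after plants spent twelve to sixteen days in a greenhouse following soil or foliar treatment. Foliar sprays targeted plants at one to four leaves; all doses were formulated in a non-phytotoxic solvent with surfactant.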

duck salad = assay: Test B flood test duck salad; format: in vivo, Heteranthera limosa
Outline: (§2)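 Plants were grown to the 2-leaf stage before treatment with test chemical, then held in a greenhouse for twelve to sixteen days. Injury was visually rated against untreated controls on a 0–10 scale, where 0 is no effect and 10 is complete control.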

bedstraw = assay: Test B pre/postemergence bedstraw; format: in vivo, Galium aparine
Outline: as §1

soybean = assay: Test B pre/postemergence soybean; format: in vivo, Glycine max
Outline: as §1

wheat = assay: Test B pre/postemergence wheat; format: in vivo, Triticum aestivum
Outline: as §1

morningglory = assay: Test B pre/postemergence morningglory; format: in vivo, Ipomoea hederacea
Outline: as §1

velvetleaf = assay: Test B pre/postemergence velvetleaf; format: in vivo, Abutilon theophrasti
Outline: as §1

pigweed = assay: Test B pre/postemergence pigweed; format: in vivo, Amaranthus retroflexus
Outline: as §1

sugar beet = assay: Test B pre/postemergence sugar beet; format: in vivo, Beta vulgaris
Outline: as §1

cocklebur = assay: Test B pre/postemergence cocklebur; format: in vivo, Xanthium strumarium
Outline: as §1

purple nutsedge = assay: Test B pre/postemergence purple nutsedge; format: in vivo, Cyperus rotundus
Outline: as §1

bamyardgrass = assay: Test B flood test barnyardgrass; format: in vivo, Echinochloa crus-galli
Outline: as §2

wild oat = assay: Test B pre/postemergence wild oat; format: in vivo, Avena fatua
Outline: as §1

surinam grass = assay: Test B pre/postemergence surinam grass; format: in vivo, Brachiaria decumbens
Outline: as §1

crabgrass = assay: Test B pre/postemergence crabgrass; format: in vivo, Digitaria sanguinalis
Outline: as §1

smallflower flatsedge = assay: Test B flood test smallflower flatsedge; format: in vivo, Cyperus difformis
Outline: as §2

blackgrass = assay: Test B pre/postemergence blackgrass; format: in vivo, Alopecurus myosuroides
Outline: as §1

rice = assay: Test B flood test rice; format: in vivo, Oryza sativa
Outline: as §2

rape = assay: Test B pre/postemergence rape; format: in vivo, Brassica napus
Outline: as §1

corn = assay: Test B pre/postemergence corn; format: in vivo, Zea mays
Outline: as §1

[1] = Preemergence, Rate 62 g/ha, scale of 0 to 10 where 0 is no effect and 10 is complete control
[2] = Preemergence, Rate 250 g/ha, scale of 0 to 10 where 0 is no effect and 10 is complete control
[3] = Preemergence, Rate 500 g/ha, scale of 0 to 10 where 0 is no effect and 10 is complete control
[4] = Rate 125 g/ha, Preemergence, scale of 0 to 10 where 0 is no effect and 10 is complete control
[5] = Rate 500 g/ha, Postemergence, scale 0 to 10, 0 no effect, 10 complete control
[6] = Rate 62 g/ha, headed Pre-emergence (flood test species), scale 0 to 10 (0 no effect, 10 complete control)
[7] = Rate 125 g/ha, Pre-emergence, flood test species, scale 0 to 10 where 0 is no effect and 10 is complete control
[8] = Rate 250 g/ha, Pre-emergence, flood-test species, scale 0 to 10, 0 is no effect, 10 is complete control
[9] = Rate 500 g/ha, Pre-emergence, flood test species, scale 0 to 10 (0 no effect, 10 complete control)
[10] = Rate 62 g/ha, Postemergence, scale of 0 to 10 where 0 is no effect and 10 is complete control
[11] = Rate 125 g/ha, Postemergence, scale 0 to 10

## COC(=O)CCCn1c(=O)on(C(=O)N(c2ccc(F)cc2)C(C)C)c1=O [Compound 266]
Giant foxtail; [1]
  Giant foxtail plant response rating: 0
Giant foxtail; [2]
  Giant foxtail plant response rating: 6
Giant foxtail; [3]
  Plant response rating, Giant foxtail: 8
Giant foxtail; [4]
  Giant foxtail plant response rating: 4
Giant foxtail; Rate 250 g/ha, Postemergence
  Plant response rating (0 to 10; 0 is no effect, 10 is complete control), Giant foxtail: 5
Giant foxtail; [5]
  Giant foxtail plant response rating: 7
Duck salad; [6]
  Ducksalad plant response rating: 0
Duck salad; [7]
  Ducksalad plant response rating: 0
Duck salad; [8]
  Ducksalad plant response rating: 0
Duck salad; [9]
  Ducksalad plant response rating: 0
bedstraw; [1]
  Bedstraw plant response rating: 0
bedstraw; [2]
  Bedstraw plant response rating: 8
bedstraw; [3]
  Plant response rating, Bedstraw: 9
bedstraw; [10]
  Bedstraw plant response rating: 0
bedstraw; [11]
  Bedstraw plant response rating: 0
bedstraw; [4]
  Bedstraw plant response rating: 3
bedstraw; Rate 250 g/ha, Postemergence
  Plant response rating (0 to 10; 0 is no effect, 10 is complete control), Bedstraw: 5
bedstraw; [5]
  Bedstraw plant response rating: 6
soybean; [1]
  Soybean plant response rating: 0
soybean; [2]
  Soybean plant response rating: 0
soybean; [3]
  Plant response rating, Soybean: 0
soybean; [4]
  Soybean plant response rating: 0
soybean; [5]
  Soybean plant response rating: 8
wheat; [1]
  Wheat plant response rating: 0
wheat; [2]
  Wheat plant response rating: 4
wheat; [3]
  Plant response rating, Wheat: 6
wheat; [4]
  Wheat plant response rating: 0
wheat; [5]
  Wheat plant response rating: 6
morningglory; [1]
  Morningglory plant response rating: 0
morningglory; [2]
  Morningglory plant response rating: 0
morningglory; [3]
  Plant response rating, Morningglory: 1
morningglory; [4]
  Morningglory plant response rating: 0
morningglory; Rate 250 g/ha, Postemergence
  Plant response rating (0 to 10; 0 is no effect, 10 is complete control), Morningglory: 5
morningglory; [5]
  Morningglory plant response rating: 8
velvetleaf; [1]
  Velvetleaf plant response rating: 0
velvetleaf; [2]
  Velvetleaf plant response rating: 0
velvetleaf; [3]
  Plant response rating, Velvetleaf: 4
velvetleaf; [4]
  Velvetleaf plant response rating: 0
velvetleaf; [5]
  Velvetleaf plant response rating: 5
pigweed; [1]
  Redroot pigweed plant response rating: 0
pigweed; [2]
  Redroot pigweed plant response rating: 6
pigweed; [3]
  Plant response rating, Redroot pigweed: 9
pigweed; [4]
  Redroot pigweed plant response rating: 0
pigweed; Rate 250 g/ha, Postemergence
  Plant response rating (0 to 10; 0 is no effect, 10 is complete control), Redroot pigweed: 5
pigweed; [5]
  Redroot pigweed plant response rating: 7
Sugar beet; [1]
  Sugarbeets plant response rating: 0
Sugar beet; [2]
  Sugarbeets plant response rating: 7
Sugar beet; [3]
  Plant response rating, Sugarbeets: 7
Sugar beet; [4]
  Sugarbeets plant response rating: 5
Sugar beet; [5]
  Sugarbeets plant response rating: 7
cocklebur; [1]
  Cocklebur plant response rating: 0
cocklebur; [2]
  Cocklebur plant response rating: 0
cocklebur; [3]
  Plant response rating, Cocklebur: 0
cocklebur; [10]
  Cocklebur plant response rating: 0
cocklebur; [11]
  Cocklebur plant response rating: 0
cocklebur; [4]
  Cocklebur plant response rating: 0
cocklebur; Rate 250 g/ha, Postemergence
  Plant response rating (0 to 10; 0 is no effect, 10 is complete control), Cocklebur: 2
cocklebur; [5]
  Cocklebur plant response rating: 2
Purple nutsedge; [2]
  Nutsedge plant response rating: 0
Purple nutsedge; [3]
  Plant response rating, Nutsedge: 0
Purple nutsedge; [4]
  Nutsedge plant response rating: 0
Purple nutsedge; Rate 250 g/ha, Postemergence
  Plant response rating (0 to 10; 0 is no effect, 10 is complete control), Nutsedge: 0
Purple nutsedge; [5]
  Nutsedge plant response rating: 3
bamyardgrass; [6]
  Barnyardgrass plant response rating: 0
bamyardgrass; [7]
  Barnyardgrass plant response rating: 0
bamyardgrass; [8]
  Barnyardgrass plant response rating: 0
bamyardgrass; [9]
  Barnyardgrass plant response rating: 0
Wild oat; [1]
  Wild oats plant response rating: 0
Wild oat; [2]
  Wild oats plant response rating: 5
Wild oat; [3]
  Plant response rating, Wild oats: 7
Wild oat; [4]
  Wild oats plant response rating: 2
Wild oat; [5]
  Wild oats plant response rating: 2
Surinam grass; [1]
  B. signalgrass plant response rating: 0
Surinam grass; [2]
  B. signalgrass plant response rating: 0
Surinam grass; [3]
  Plant response rating, B. signalgrass: 7
Surinam grass; [10]
  B. signalgrass plant response rating: 0
Surinam grass; Rate 125 g/ha, Postemergence, scale 0 (no effect) to 10 (complete control)
  B. signalgrass plant response rating: 0
Surinam grass; [4]
  B. signalgrass plant response rating: 0
Surinam grass; Rate 250 g/ha, Postemergence
  Plant response rating (0 to 10; 0 is no effect, 10 is complete control), B. signalgrass: 0
Surinam grass; [5]
  B. signalgrass plant response rating: 2
crabgrass; [1]
  Crabgrass plant response rating: 0
crabgrass; [2]
  Crabgrass plant response rating: 5
crabgrass; [3]
  Plant response rating, Crabgrass: 6
crabgrass; [4]
  Crabgrass plant response rating: 1
crabgrass; Rate 250 g/ha, Postemergence
  Plant response rating (0 to 10; 0 is no effect, 10 is complete control), Crabgrass: 3
crabgrass; [5]
  Crabgrass plant response rating: 5
Smallflower flatsedge; [6]
  S. Flatsedge plant response rating: 0
Smallflower flatsedge; [7]
  S. Flatsedge plant response rating: 0
Smallflower flatsedge; [8]
  S. Flatsedge plant response rating: 0
Smallflower flatsedge; [9]
  S. Flatsedge plant response rating: 0
blackgrass; [1]
  Blackgrass plant response rating: 8
blackgrass; [2]
  Blackgrass plant response rating: 9
blackgrass; [3]
  Plant response rating, Blackgrass: 9
blackgrass; [10]
  Blackgrass plant response rating: 3
blackgrass; [11]
  Blackgrass plant response rating: 5
blackgrass; [4]
  Blackgrass plant response rating: 8
blackgrass; Rate 250 g/ha, Postemergence
  Plant response rating (0 to 10; 0 is no effect, 10 is complete control), Blackgrass: 6
blackgrass; [5]
  Blackgrass plant response rating: 8
rice; [6]
  Rice plant response rating: 0
rice; [7]
  Rice plant response rating: 0
rice; [8]
  Rice plant response rating: 0
rice; [9]
  Rice plant response rating: 0
rape; [1]
  Rape plant response rating: 0
rape; [2]
  Rape plant response rating: 5
rape; [3]
  Plant response rating, Rape: 5
rape; [4]
  Rape plant response rating: 0
rape; Rate 250 g/ha, Postemergence
  Plant response rating (0 to 10; 0 is no effect, 10 is complete control), Rape: 6
rape; [5]
  Rape plant response rating: 7
corn; [1]
  Corn plant response rating: 0
corn; [2]
  Corn plant response rating: 0
corn; [3]
  Plant response rating, Corn: 0
corn; [10]
  Corn plant response rating: 0
corn; [11]
  Corn plant response rating: 0
corn; [4]
  Corn plant response rating: 0
corn; Rate 250 g/ha, Postemergence
  Plant response rating (0 to 10; 0 is no effect, 10 is complete control), Corn: 0
corn; [5]
  Corn plant response rating: 0
